# Test results taken from patent US20090048301A1 (IMCLONE SYSTEMS INCORPORATED, priority 2003, published 2009).
# Tested on: bovine tubulin
# Test: In vitro tubulin polymerization assay (turbidity at 340 nm)
# Type: biochemical
# Settings: 10 μM compound, 30 minute data point, vs 1% DMSO control
# Procedure: Briefly, tubulin polymerization is a kinetic process that is temperature-dependent and requires GTP and was performed as follows. Soluble tubulin dimers polymerize into microtubules upon warming, and polymerization in vitro correlates with an increase in turbidity (measured at 340 nm). Lyophilized bovine tubulin (HTS Tubulin—97% tubulin, <3% MAPs—Cytoskeleton Inc.) was ressuspended in G-PEM buffer (80 mM PIPES pH 7, 1 mM EGTA, 1 mM MgCl2, 1 mM GTP, 5% glycerol) to a final concentration of 3 mg/ml and kept at 4° C. Compounds in 100× stock solutions in DMSO were dotted to pre-warmed 96-well plates (Corning Costar 3696), the plates were transferred to a 37° C. plate reader (SPECTRAmax Plus, Molecular Devices), cold tubulin was added to the wells, and the plates were shaken for mixing. The absorbance at 340 nm was determined at one minute intervals for 30 minutes. Kinetic curves with 30 points each were collected for each compound, and the dynamic range was between 0 and 0.4 OD units. The percentage inhibition values were calculated using the 30 minute data point and based on control samples (treated with 1% DMSO only). The assay is a modified version of the HTS kit sold by Cytoskeleton (1830 S. Acoma St., Denver, Colo.), adapted to maximize throughput and reduce time, without reduction in dynamic range or sensitivity, while retaining the ability to detect compounds that inhibit or enhance tubulin polymerization.
# Tubulin polymerization is a kinetic process that is temperature-dependent and requires GTP. Soluble tubulin dimers polymerize into microtubules upon warming, and polymerization in vitro correlates with an increase in turbidity (measured at 340 nm). Liophilized bovine tubulin (HTS Tubulin—97% tubulin, <3% MAPs—Cytoskeleton Inc.) was ressuspended in G-PEM buffer (80 mM PIPES pH 7, 1 mM EGTA, 1 mM MgCl2, 1 mM GTP, 5% glycerol) to a final concentration of 3 mg/ml and kept at 4° C. Compounds in 100× stock solutions in DMSO were dotted to pre-warmed 96-well plates (Corning Costar 3696), the plates were immediately transferred to a 37° C. plate reader (SPECTRAmax Plus, Molecular Devices), cold tubulin was added to the wells, plates were shaken for mixing, and absorbance at 340 nm was read every minute for 30 minutes. Kinetic curves with 30 points each were collected for each compound, and the dynamic range was between 0 and 0.4 OD units. Percentage inhibition values were calculated using the 30 minute data point, based on control samples (treated with 1% DMSO only). This assay is a modified version of the HTS kit sold by Cytoskeleton, adapted to maximize throughput and reduce time, without reduction in dynamic range or sensitivity, while retaining the ability to detect compounds that inhibit or enhance tubulin polymerization.
row,SMILES,Tubulin Assay: percent inhibition at 10 μM based on 30 minute data
1,"c1cncc(CCNc2ncccc2-c2nnc(Nc3ccc4c(c3)OCCO4)[nH]2)c1 [Compound 41, {3-[5-(2,3-Dihydro-benzo[1,4]dioxin-6-ylamino)-4H-[1,2,4]triazol-3-yl]-pyridin-2-yl}-(2-pyridin-3-yl-ethyl)-amine]",23%
2,"COc1cccc(Nc2nnc(-c3cccnc3NCC3COCCO3)[nH]2)c1 (stereo not shown) [Compound 46, [1,4]Dioxan-2-ylmethyl-{3-[5-(3-methoxy-phenylamino)-4H-[1,2,4]triazol-3-yl]-pyridin-2-yl}-amine]",25%
3,"c1cnc(NCC2COCCO2)c(-c2nnc(Nc3ccc4c(c3)OCO4)[nH]2)c1 (stereo not shown) [Compound 47, {3-[5-(Benzo[1,3]dioxol-5-ylamino)-4H-[1,2,4]triazol-3-yl]-pyridin-2-yl}-[1,4]dioxan-2-ylmethyl-amine]",24%
4,"O=C1CCCN1CCCNc1ncccc1-c1nnc(Nc2ccc3c(c2)OCCO3)[nH]1 [Compound 48, 1-(3-{3-[5-(2,3-Dihydro-benzo[1,4]dioxin-6-ylamino)-4H-[1,2,4]thiazol-3-yl]-pyridin-2-ylamino}-propyl)-pyrrolidin-2-one]",21%
5,"COc1cccc(CNc2ncccc2-c2nnc(Nc3ccc4c(c3)OCCO4)[nH]2)c1 [Compound 52, {3-[5-(2,3-Dihydro-benzo[1,4]dioxin-6-ylamino)-4H-[1,2,4]triazol-3-yl]-pyridin-2-yl}-(3-methoxy-benzyl)-amine]",35%
6,"c1cnc(NCC2COCCO2)c(-c2nnc(Nc3ccc4c(c3)OCCO4)[nH]2)c1 (stereo not shown) [Compound 55, {3-[5-(2,3-Dihydro-benzo[1,4]dioxin-6-ylamino)-4H-[1,2,4]triazol-3-yl]-pyridin-2-yl}-[1,4]dioxan-2-ylmethyl-amine]",23%
7,"COc1ccc(CNc2nnc(-c3cccnc3NCCCN3CCCC3=O)[nH]2)cc1 [Compound 57, 1-(3-{3-[5-(4-Methoxy-benzylamino)-4H-[1,2,4]triazol-3-yl]-pyridin-2-ylamino}-propyl)-pyrrolidin-2-one]",22%
8,"COc1cc(Nc2ncccc2-c2nnc(Nc3cccc(NCc4ccc5c(c4)OCO5)c3)[nH]2)cc(OC)c1 [Compound 60, N-Benzo[1,3]dioxol-5-ylmethyl-N′-{5-[2-(3,5-dimethoxy-phenylamino)-pyridin-3-yl]-4H-[1,2,4]triazol-3-yl}-benzene-1,3-diamine]",99%
9,"COc1cc(Nc2ncccc2-c2nnc(Nc3cccc(N)c3)[nH]2)cc(OC)c1 [Compound 60b, N-{5-[2-(3,5-dimethoxy-phenylamino)-pyridin-3-yl]-4H-[1,2,4]triazol-3-yl}-benzene-1,3-diamine]",39%
10,"COc1cc(Nc2ncccc2-c2nnc(Nc3cccc(NCC4CCOCC4)c3)[nH]2)cc(OC)c1 [Compound 61, N-{5-[2-(3,5-Dimethoxy-phenylamino)-pyridin-3-yl]-4H-[1,2,4]triazol-3-yl}-N′-(tetrahydro-pyran-4-ylmethyl)-benzene-1,3-diamine]",24%
11,"COc1cc(Nc2ncccc2-c2nnc(Nc3cccc(NCc4ccco4)c3)[nH]2)cc(OC)c1 [Compound 62, N-{5-[2-(3,5-Dimethoxy-phenylamino)-pyridin-3-yl]-4H-[1,2,4]triazol-3-yl}-N′-furan-2-ylmethyl-benzene-1,3-diamine]",73%
12,"COc1cc(Nc2ncccc2-c2nnc(Nc3cccc(NS(=O)(=O)c4ccc5c(c4)CCO5)c3)[nH]2)cc(OC)c1 [Compound 63, 2,3-Dihydro-benzofuran-5-sulfonic acid (3-{5-[2-(3,5-dimethoxy-phenylamino)-pyridin-3-yl]-4H-[1,2,4]triazol-3-ylamino}-phenyl)-amide]",24%
13,"COc1cc(Nc2ncccc2-c2nnc(Nc3cccc(NS(=O)(=O)c4ccc5c(c4)OCCO5)c3)[nH]2)cc(OC)c1 [Compound 64, 2,3-Dihydro-benzo[1,4]dioxine-6-sulfonic acid (3-{5-[2-(3,5-dimethoxy-phenylamino)-pyridin-3-yl]-4H-[1,2,4]triazol-3-ylamino}-phenyl)-amide]",29%
14,"COc1cc(Nc2ncccc2-c2nc(Nc3ccc4c(c3)OCO4)n(C)n2)cc(OC)c1 [Compound 65, {3-[5-(Benzo[1,3]dioxol-5-ylamino)-1-methyl-1H-[1,2,4]triazol-3-yl]-pyridin-2-yl}-(3,5-dimethoxy-phenyl)-amine]",77%
15,"COc1cccc(Nc2nc(-c3cccnc3Nc3cc(OC)cc(OC)c3)nn2C)c1 [Compound 66, (3,5-Dimethoxy-phenyl)-{3-[5-(3-methoxy-phenylamino)-1-methyl-1H-[1,2,4]triazol-3-yl]-pyridin-2-yl}-amine]",73%
16,"COc1cc(Nc2ncccc2-c2nc(Nc3ccc4c(c3)OCCO4)n(C)n2)cc(OC)c1 [Compound 67, {3-[5-(2,3-Dihydro-benzo[1,4]dioxin-6-ylamino)-1-methyl-1H-[1,2,4]triazol-3-yl]-pyridin-2-yl}-(3,5-dimethoxy-phenyl)-amine]",76%
17,"Cn1nc(-c2cccnc2NCc2ccncc2)nc1Nc1ccc2c(c1)OCCO2 [Compound 68, {3-[5-(2,3-Dihydro-benzo[1,4]dioxin-6-ylamino)-1-methyl-1H-[1,2,4]triazol-3-yl]-pyridin-2-yl}-pyridin-4-ylmethyl-amine]",58%
18,"COc1cccc(Nc2nc(-c3cccnc3NCc3ccncc3)nn2C)c1 [Compound 69, {3-[5-(3-Methoxy-phenylamino)-1-methyl-1H-[1,2,4]triazol-3-yl]-pyridin-2-yl}-pyridin-4-ylmethyl-amine]",29%
19,"Cn1nc(-c2cccnc2NCc2ccncc2)nc1Nc1ccc2c(c1)OCO2 [Compound 70, {3-[5-(Benzo[1,3]dioxol-5-ylamino)-1-methyl-1H-[1,2,4]triazol-3-yl]-pyridin-2-yl}-pyridin-4-ylmethyl-amine]",32%
20,"FC(F)(F)c1cccc(-c2nnc(-c3cccnc3NCc3ccncc3)[nH]2)c1 [Compound 76, Pyridin-4-ylmethyl-{3-[5-(3-trifluoromethyl-phenyl)-4H-[1,2,4]thiazol-3-yl]-pyridin-2-yl}-amine]",21%
21,"Fc1ccc(-c2nnc(-c3cccnc3NCc3ccc4c(c3)OCO4)[nH]2)cc1Cl [Compound 81, Benzo[1,3]dioxol-5-ylmethyl-{3-[5-(3-chloro-4-fluoro-phenyl)-4H-[1,2,4]triazol-3-yl]-pyridin-2-yl}-amine]",20%
22,"FC(F)(F)c1cccc(-c2nnc(-c3cccnc3NCc3ccc4c(c3)OCO4)[nH]2)c1 [Compound 83, Benzo[1,3]dioxol-5-ylmethyl-{3-[5-(3-trifluoromethyl-phenyl)-4H-[1,2,4]triazol-3-yl]-pyridin-2-yl}-amine]",25%
23,"COc1cccc(-c2nnc(-c3cccnc3NCCc3c[nH]cn3)[nH]2)c1 [Compound 90, [2-(1H-Imidazol-4-yl)-ethyl]-{3-[5-(3-methoxy-phenyl)-4H-[1,2,4]triazol-3-yl]-pyridin-2-yl}-amine]",25%
24,"CS(=O)(=O)c1ccc(-c2nnc(-c3cccnc3NCCc3c[nH]cn3)[nH]2)cc1 [Compound 91, [2-(1H-Imidazol-4-yl)-ethyl]-{3-[5-(4-methanesulfonyl-phenyl)-4H-[1,2,4]triazol-3-yl]-pyridin-2-yl}-amine]",29%
25,"COc1cc(Nc2ncccc2-c2nnc(-c3ccc4c(c3)OCO4)[nH]2)cc(OC)c1 [Compound 93, [3-(5-Benzo[1,3]dioxol-5-yl-4H-[1,2,4]triazol-3-yl)-pyridin-2-yl]-(3,5-dimethoxy-phenyl)-amine]",28%
